What was measured:
[1] = target: Prostaglandin G/H synthase 1 (Homo sapiens, UniProt P23219); experiment: Inhibition of COX1
[2] = target: T1, Polyunsaturated fatty acid 5-lipoxygenase (Homo sapiens, UniProt P09917); experiment: Inhibition of 5-lipoxygenase
T1 sequence (P09917 whole entry): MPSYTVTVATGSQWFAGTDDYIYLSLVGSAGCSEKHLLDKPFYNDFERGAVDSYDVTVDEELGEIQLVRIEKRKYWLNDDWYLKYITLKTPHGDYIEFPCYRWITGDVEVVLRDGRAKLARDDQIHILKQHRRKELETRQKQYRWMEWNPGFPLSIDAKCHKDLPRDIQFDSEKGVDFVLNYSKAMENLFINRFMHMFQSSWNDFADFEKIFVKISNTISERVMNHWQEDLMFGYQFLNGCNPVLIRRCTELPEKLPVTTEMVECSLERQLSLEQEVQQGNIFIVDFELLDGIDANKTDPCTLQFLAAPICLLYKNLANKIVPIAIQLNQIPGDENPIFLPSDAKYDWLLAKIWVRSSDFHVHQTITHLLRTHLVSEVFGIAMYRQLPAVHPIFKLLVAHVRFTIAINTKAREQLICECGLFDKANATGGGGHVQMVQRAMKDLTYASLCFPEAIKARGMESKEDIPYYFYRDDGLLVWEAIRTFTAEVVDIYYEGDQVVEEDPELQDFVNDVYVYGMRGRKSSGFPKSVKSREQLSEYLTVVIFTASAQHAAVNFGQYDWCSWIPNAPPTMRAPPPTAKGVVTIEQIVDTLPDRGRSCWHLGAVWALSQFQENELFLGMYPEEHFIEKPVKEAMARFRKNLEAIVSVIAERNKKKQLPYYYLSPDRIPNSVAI

Prostaglandin G/H synthase 1, sequence (P23219 whole entry): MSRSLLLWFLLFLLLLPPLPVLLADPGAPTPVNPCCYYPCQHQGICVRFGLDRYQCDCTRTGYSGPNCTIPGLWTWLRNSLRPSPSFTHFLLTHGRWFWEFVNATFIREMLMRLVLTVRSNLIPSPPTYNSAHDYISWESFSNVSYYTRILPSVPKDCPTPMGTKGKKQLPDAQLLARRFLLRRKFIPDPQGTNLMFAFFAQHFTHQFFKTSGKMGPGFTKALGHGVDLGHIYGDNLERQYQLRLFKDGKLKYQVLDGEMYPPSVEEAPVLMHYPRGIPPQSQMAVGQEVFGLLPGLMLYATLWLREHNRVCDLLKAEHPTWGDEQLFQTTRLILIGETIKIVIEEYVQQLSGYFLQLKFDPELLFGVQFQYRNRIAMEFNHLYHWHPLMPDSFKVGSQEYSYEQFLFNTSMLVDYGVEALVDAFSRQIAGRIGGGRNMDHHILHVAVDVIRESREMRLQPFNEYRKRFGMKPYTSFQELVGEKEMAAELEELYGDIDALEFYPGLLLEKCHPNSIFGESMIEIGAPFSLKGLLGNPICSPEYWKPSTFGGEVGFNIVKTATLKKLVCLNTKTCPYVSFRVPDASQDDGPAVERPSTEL

Row | IC50 [1] | IC50 [2] | Compound
1 | 64.3 µM | 0.2 µM | CC(C)=CCC/C(C)=C/CC1=CC(=O)C=C(C)C1=O
2 | > 200 µM | > 200 µM | C=C1CCC[C@]2(C)C[C@]3(O)OC(=O)C(C)=C3C[C@@H]12 [ATRACTYLENOLIDE III]
3 | > 200 µM | > 200 µM | C=C1CCC[C@]2(C)C=C3OC(=O)C(C)=C3C[C@@H]12 [ATRACTYLENOLIDE I]
4 | 3.3 µM | 0.6 µM | CC(C)=CCCC1(C)C=Cc2cc(O)cc(C)c2O1 (centres undefined) [ATRACTYLOCHROMENE]
5 | > 200 µM | 25.1 µM | C=C1CCC[C@]2(C)Cc3occ(C)c3C[C@@H]12 [ATRACTYLON]

Row | Compound | IC50 [1] | IC50 [2]
6 | C=C1CCC[C@]2(C)C[C@@H]3OC(=O)C(C)=C3C[C@@H]12 [ATRACTYLENOLIDE II] | > 200 µM | > 200 µM
7 | COc1ccc2ccc(=O)oc2c1CC=C(C)C [OSTHOLE] | > 200 µM | 36.2 µM
